The values below come from paper PMC10660610 (Scientific Reports, 2023).

T2 sequence (P33535 whole entry): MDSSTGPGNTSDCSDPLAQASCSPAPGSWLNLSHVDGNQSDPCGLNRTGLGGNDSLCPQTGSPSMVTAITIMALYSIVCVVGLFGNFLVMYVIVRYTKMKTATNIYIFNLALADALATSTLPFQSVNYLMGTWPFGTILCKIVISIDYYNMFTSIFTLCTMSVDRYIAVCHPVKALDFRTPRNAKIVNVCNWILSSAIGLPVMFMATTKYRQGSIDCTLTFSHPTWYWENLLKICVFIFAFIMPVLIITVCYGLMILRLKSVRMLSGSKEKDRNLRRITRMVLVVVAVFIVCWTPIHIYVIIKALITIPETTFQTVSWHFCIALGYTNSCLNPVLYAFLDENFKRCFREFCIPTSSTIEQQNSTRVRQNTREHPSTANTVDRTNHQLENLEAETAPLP
T3 sequence (P33533 whole entry): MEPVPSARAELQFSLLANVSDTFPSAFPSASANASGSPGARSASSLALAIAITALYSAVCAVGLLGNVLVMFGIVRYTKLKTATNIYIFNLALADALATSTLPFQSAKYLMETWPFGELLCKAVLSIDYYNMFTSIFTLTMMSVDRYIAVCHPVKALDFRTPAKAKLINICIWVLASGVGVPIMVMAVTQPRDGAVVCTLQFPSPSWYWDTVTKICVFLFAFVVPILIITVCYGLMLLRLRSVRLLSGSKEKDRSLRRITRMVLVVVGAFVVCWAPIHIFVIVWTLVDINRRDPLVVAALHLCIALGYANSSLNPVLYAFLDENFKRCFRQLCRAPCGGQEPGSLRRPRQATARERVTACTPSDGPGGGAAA

For one test, the target named is T1, KOR (kappa-opioid receptor) (Cavia porcellus, UniProt P41144).
T1 construct: gene OPRK1; native full-length receptor in guinea pig brain membrane homogenate
T1 sequence (P41144 whole entry): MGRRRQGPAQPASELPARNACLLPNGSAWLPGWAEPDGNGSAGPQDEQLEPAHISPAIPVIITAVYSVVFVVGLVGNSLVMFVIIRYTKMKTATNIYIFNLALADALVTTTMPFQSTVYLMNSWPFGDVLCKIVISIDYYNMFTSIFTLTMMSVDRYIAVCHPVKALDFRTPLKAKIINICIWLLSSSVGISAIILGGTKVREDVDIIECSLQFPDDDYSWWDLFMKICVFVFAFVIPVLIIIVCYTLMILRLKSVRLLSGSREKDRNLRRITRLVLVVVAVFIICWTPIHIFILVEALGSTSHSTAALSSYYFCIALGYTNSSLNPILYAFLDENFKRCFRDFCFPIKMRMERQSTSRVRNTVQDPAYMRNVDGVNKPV
It is filed as binding. As to conditions: 50 mM Tris-HCl pH 7.4, 25 °C, 30 min; read-out: KOR^b / Ki ± S.E.M.
Description: [3H]HS665 displacement, guinea pig brain membranes on KOR (kappa-opioid receptor)
For `Oc1ccc2c3c1O[C@H]1[C@@H](O)C=C[C@H]4[C@@H](C2)N(CCN2CCOCC2)CC[C@@]341` [9a], the Ki worked out at 20.3 ± 4.2 nM.

Consider `Oc1ccc2c3c1O[C@H]1[C@@H](O)C=C[C@H]4[C@@H](C2)N(CCN2CCCCC2)CC[C@@]341` [9b], for which the Ki was 138 ± 42.3 nM.

Take `Oc1ccc2c3c1O[C@H]1[C@@H](O)C=C[C@H]4[C@@H](C2)N(CCN2CCCC2)CC[C@@]341` [9c]: the Ki was found to be 6.9 ± 4.6 nM.

For the compound `O=C(CN1CC[C@]23c4c5ccc(O)c4O[C@H]2[C@@H](O)C=C[C@H]3[C@H]1C5)N1CCOCC1` [10a], the Ki stood at 3.6 ± 1.9 nM.

As for `O=C(CN1CC[C@]23c4c5ccc(O)c4O[C@H]2[C@@H](O)C=C[C@H]3[C@H]1C5)N1CCCC1` [10c], the Ki came out at 10.7 ± 7.7 nM.

Another test has as its target T2, MOR (mu-opioid receptor) (Rattus norvegicus, UniProt P33535).
T2 construct: gene Oprm1; native full-length receptor in rat brain membrane homogenate
It is filed as binding. As to conditions: 50 mM Tris-HCl pH 7.4, 35 °C, 45 min; read-out: MOR^a / Ki ± S.E.M.
On to `Oc1ccc2c3c1O[C@H]1[C@@H](O)C=C[C@H]4[C@@H](C2)N(CCN2CCOCC2)CC[C@@]341` [9a], for which the Ki was determined as 389 ± 17 nM.

In the case of `Oc1ccc2c3c1O[C@H]1[C@@H](O)C=C[C@H]4[C@@H](C2)N(CCN2CCCCC2)CC[C@@]341` [9b], the Ki worked out at 436 ± 18.8 nM.

Turning to `Oc1ccc2c3c1O[C@H]1[C@@H](O)C=C[C@H]4[C@@H](C2)N(CCN2CCCC2)CC[C@@]341` [9c], the Ki stood at 62.3 ± 2.6 nM.

`O=C(CN1CC[C@]23c4c5ccc(O)c4O[C@H]2[C@@H](O)C=C[C@H]3[C@H]1C5)N1CCOCC1` [10a]: the Ki came out at 394 ± 186 nM.

As for `O=C(CN1CC[C@]23c4c5ccc(O)c4O[C@H]2[C@@H](O)C=C[C@H]3[C@H]1C5)N1CCCCC1` [10b], the Ki was 1500 ± 664 nM.

For `O=C(CN1CC[C@]23c4c5ccc(O)c4O[C@H]2[C@@H](O)C=C[C@H]3[C@H]1C5)N1CCCC1` [10c], the Ki came to 521 ± 218 nM.

With `O=C1CC[C@@]2(O)[C@H]3Cc4ccc(O)c5c4[C@@]2(CCN3CC(=O)N2CCOCC2)[C@H]1O5` [12a], the Ki was 684 ± 32.7 nM.

Consider `O=C1CC[C@@]2(O)[C@H]3Cc4ccc(O)c5c4[C@@]2(CCN3CC(=O)N2CCCCC2)[C@H]1O5` [12b], for which the Ki was found to be 1490 ± 612 nM.

A further test concerns the target T3, DOR (delta-opioid receptor) (Rattus norvegicus, UniProt P33533).
T3 construct: gene Oprd1; native full-length receptor in rat brain membrane homogenate
The format is binding. As to conditions: 50 mM Tris-HCl pH 7.4, 35 °C, 45 min; read-out: DOR^a / Ki ± S.E.M.
Turning to `Oc1ccc2c3c1O[C@H]1[C@@H](O)C=C[C@H]4[C@@H](C2)N(CCN2CCOCC2)CC[C@@]341` [9a], the Ki was 25.3 ± 1.5 nM.

As to `Oc1ccc2c3c1O[C@H]1[C@@H](O)C=C[C@H]4[C@@H](C2)N(CCN2CCCCC2)CC[C@@]341` [9b], the Ki is 44.9 ± 7.2 nM.

As to `Oc1ccc2c3c1O[C@H]1[C@@H](O)C=C[C@H]4[C@@H](C2)N(CCN2CCCC2)CC[C@@]341` [9c], the Ki was found to be 34.1 ± 7.1 nM.

For `O=C(CN1CC[C@]23c4c5ccc(O)c4O[C@H]2[C@@H](O)C=C[C@H]3[C@H]1C5)N1CCCCC1` [10b], the Ki was over 10000 nM.

As for `O=C(CN1CC[C@]23c4c5ccc(O)c4O[C@H]2[C@@H](O)C=C[C@H]3[C@H]1C5)N1CCCC1` [10c], the Ki amounted to 839 ± 99.9 nM.

Consider `O=C1CC[C@@]2(O)[C@H]3Cc4ccc(O)c5c4[C@@]2(CCN3CC(=O)N2CCOCC2)[C@H]1O5` [12a], for which the Ki was 125 ± 39.6 nM.

As for `O=C1CC[C@@]2(O)[C@H]3Cc4ccc(O)c5c4[C@@]2(CCN3CC(=O)N2CCCCC2)[C@H]1O5` [12b], the Ki was 1140 ± 532 nM.
